According to patent publication US5461057A, “Hydro-ethano-indeno-pyridines” (priority 1994, dated 1995):
Where a name gives a salt, the structure may show the parent alone.

Legend:
[1] = tested on: histamine-induced dyspnea; assay: Bronchodilator (in vivo) Guinea Pig Dyspnea; conditions: oral, one hour before histamine challenge
Description: Unanesthetized guinea pigs (250-350 g), fasted overnight were placed in individual closed aerosol chambers which were connected to a Monoghan Ultrasonic nebulizer. The nebulizer can deliver an ultrasonic fog of uniform particles in a range of 1-8 microns. A 0.1% solution of histamine is aerosolized into the chambers causing the guinea pigs to develop dyspnea. The test drug was given orally one hour before the histamine challenge and the onset of dyspnea was recorded. Saline control animals developed dyspnea within 90-120 seconds of aerosol exposure. […] The data was expressed as the number tested over the number survived. The model was sensitive to bronchodilator and H1 antihistamine activity. Further information relating this test can be obtained from the following two publications which are hereby incorporated by reference: Dungan, K. W. and Lish, P. M. J Allergy 32:139-151 (1961). and Lish, P. M., Robbins, S. I. and Petres E. L. J. Pharmacol. Exp. Therap. 153 L 1538 (1966 ).

[2] = tested on: pulmonary resistance; assay: Pulmonary Resistance in the Anesthetized Rat; format: in vivo; conditions: 0.5 mpk, i.v., mean of 5 animals, % decrease in pre-drug baseline resistance; for inhibition in vivo at 0.5 mg/kg: Rattus norvegicus, iv, read-out: Pulmonary Resistance in Rats, % Inhibition
Description: Rats (400-500 g) anesthetized with dialurethane were surgically prepared with tracheal and esophageal catheters. These catheters were connected to pressure transducers for recording of air flow, tracheal and esophageal pressures. These pressures formed the basis for measurement of pulmonary resistance. Inhibition of pulmonary resistance is a reflection of bronchodilation.
All compounds were tested i. v. in 5 separate animals. All data are expressed in % decrease in the pre-drug baseline resistance and each number given is the mean of the 5 animals tested.
The model is sensitive to bronchodilator activity.
Further information relating this test can be obtained from the following publications which are hereby incorporated by reference: Comroe et al, J. Appl. Physio. 4:439-44 (1959); Dungan et al J. Pharmacol. Exp. Therap. 164:290-301(1968); and Mead, J. et al. J. Appl. Physio. 5:779-796 (1953).

[3] = tested on: LOX human melanoma cell adhesion to human fibronectin; assay: LOX melanoma cell adhesion to fibronectin; format: cell-based; conditions: Homo sapiens, LOX; for inhibition at 10 µM: read-out: % Inhibition at 10 μM; for inhibition at 50 µM: read-out: % Inhibition at 50 μM; for IC50: Table 4, 1 hour adhesion, read-out: LOX FN IC50
Description: (§1) Adhesion assays were run essentially as described previously (Pai et al., J. Biomed. Res. 2: 53, 1992). 96-well plates were coated with human fibronectin (140 ng/well), human vitronectin (75 ng/well), human collagen I (100 ng/well), human collagen IV (100 ng/well), human fibrinogen (1 μg/well), murine laminin (600 ng/well), or polylysine, and incubated overnight in a humidified 37° C. incubator. Excess fibronectin or other substrate was then removed and 0.2 ml of 2 mg/ml bovine serum albumin (BSA)in Dulbecco's phosphate-buffered saline (DPBS) was added to each well, incubated for 2 hours at 37° C., and removed. LOX human melanoma cells, M27 murine lung carcinoma cells or B16F10 mouse melanoma cells were detached from tissue culture flasks with RPMI medium containing 0.2M urea and 10 mM EDTA, and 0.18 ml of cells were added to each well to a final cell concentration of 1×10^5 cells/well. For inhibition studies 20 μl of 10× compound was added to the wells prior to cell addition. Cells were allowed to adhere for 1 hour at 37° C. The wells were then gently washed twice with 0.2 ml DPBS. The fluorescent dye calcein AM (Molecular Probes, Eugene Oreg.) in DPBS (0.1 ml of 1 μM) was added to each well, and the plates were incubated for 1 hour at room temperature. Adherent cells were quantitated by reading the fluorescence on a Cytofluor 2300 fluorescent plate reader (Millipore) at 485 nm excitation and 530 nm emission.
LOX FN-IC50 value for inhibition of adhesion of LOX human melanoma cells to fibronectin coated on a plastic surface.

[4] = Calcein cytotoxicity assay; format: cell-based; conditions: human, lox melanoma cells; 2 hours, calcein AM assay; read-out: 2 Hr Tox LD50
Description: LOX human melanoma cells were detached from tissue culture flasks with RPMI medium containing 0.2M urea and 10 mM EDTA, and 0.18 ml of cells were added to each well to a final cell concentration of 5×10^4 cells/well. 20 μl of 10× compound was added to the wells prior to cell addition. Cells were incubated with the compound at 37° C. for 1 hour or 5 hour as indicated. Calcein AM in DPBS (0.02 ml of 5 μM) was added to each well, and the plates were incubated for an additional 1 hour at room temperature. Viable cells were quantitated by reading the fluorescence on a Cytofluor 2300 fluorescent plate reader at 485 nm excitation and 530 nm emission.

[5] = tested on: LOX human melanoma cell adhesion to polylysine; assay: LOX melanoma cell adhesion to polylysine; format: cell-based; conditions: read-out: Poly Lys IC50
Description: as §1

[6] = tested on: acetic acid-induced writhing; assay: Acetic Acid Writhing Test in Mice; format: in vivo, mouse; conditions: Mus musculus, po, read-out: WRITH ED50
Source text: The blockade of writhing induced by the intraperitoneal injection of acetic acid is an established experimental animal model for the screening of antinociceptive drugs (drugs which prevent the appreciation or transmission of pain sensations).
The procedure for the Acetic Acid Writhing Test in Mice is set forth in Hendershot et al, J. Pharmacol. Exp. Therap. 125:237, (1959); Koster et al., Fed. Proc. 18:412, (1959); and international application PCT/US91/06705, filed 20 Sep. 1991, which are hereby incorporated by reference.
The results for this test are given below in the units of mg/kg which is also abbreviated in this specification as mpk. The results for this test are given as effective doses (ED50 's).

[7] = tested on: TBZ-induced ptosis; assay: Effects on tetrabenazine (TBZ)-induced ptosis in mice; format: in vivo, mouse; conditions: for ED50: Mus musculus, po
Source text: Clinically active antidepressant drugs are known to block TBZ-induced ptosis in mice (See Psychosomatic Medicine, Nodine and Moyer, Eds. Lea and Febiger, Philadelphia, 1962, pp 683-90, which is hereby incorporated by reference). Activity in this test is used to predict anti-depressant activity in man.
The procedure for the TBZ-Induced Ptosis Test in Mice is set forth in Psychosomatic Medicine, Nodine and Moyer, Eds. Lea and Febiger, which is hereby incorporated by reference and in PCT/US91/06705, filed 20 Sep. 1991, which is mentioned above.
The results for this test are given below as ED50 's in the units of mg/kg.
TBZ refers to the test of effects on tetrabenazine induced ptosis in mice, p.o.;

[8] = tested on: methamphetamine toxicity; assay: Methamphetamine toxicity test in mice; format: in vivo; conditions: Mus musculus, read-out: METHA ED50
Description: The methamphetamine toxicity test in mice was carried out as described in Burn et al, Arch. Int. Pharmacodyn 113:290-295, (1958); and Coscia et al, Arzneim-Forsch (Drug Research) 25:1436-1442, (1975); which are hereby incorporated by reference.
(§2) The results for this test are given below as ED50's in the units of mg/kg.
METHA refers to the methamphetamine toxicity test in mice;

[9] = tested on: metrazole; assay: Anti-metrazole test in mice; format: in vivo, mouse; conditions: Mus musculus, read-out: MTZ ED50
Description: The anti-metrazole test in mice was carried out as described in Everett et al, J. Pharmacol. Exp. Therap. 81:402-407 (1944); which is hereby incorporated by reference.
as §2

[10] = Cavia porcellus, 1 h, 100 mg/kg, read-out: DYSP survivors (converted)

Compound | DYSP survivors ([1]; 100 mg/kg) | Pulmonary Resistance in Rats, % Inhibition [2] [%] | inhibition at 10 µM [3] [%] | inhibition at 50 µM [3] [%] | IC50 [3] [µM] | CC50 at 2 h [4] [µM] | IC50 [5] [µM] | ED50 [6] [mg/kg] | ED50 [7] [mg/kg] | ED50 [8] [mg/kg] | ED50 [9] [mg/kg] | responders at 50 mg/kg ([1]; Cavia porcellus, 1 h, 50 mg/kg, read-out: DYSP survivors (converted)) [%] | responders at 100 mg/kg [1, 10] [%] | DYSP survivors ([1]; 30 mg/kg) | DYSP survivors ([1]; 60 mg/kg) | observation in TBZ test (footnote c) ([7]; p.o., at the dose of 30 marked c) | inhibition in vivo at 0.5 mg/kg [2] [%] | DYSP survivors ([1]; 50 mg/kg)
CN1C2CCC1C1C(=C(c3ccc(Cl)c(C(F)(F)F)c3)c3ccccc31)C2 (stereo not drawn) [Compound N] | 0/3 | 33 | 7 | 101 | 19.4 | 23.8 | 25.3 |  |  |  |  |  |  |  |  |  |  | 
COc1ccc2c(c1)C(c1ccccc1)C1=C2C2CCC(C1)N2 (stereo not drawn) [FF] | 0/3 | 2 |  |  |  |  |  | > 30 | > 30 | > 30 | > 30 |  |  |  |  |  |  | 
COc1ccc(C2(O)c3ccccc3C3C4CCC(CC32)N4)cc1 (stereo not drawn) [JJ] |  |  | 10.1 | 33.7 |  |  |  | > 30 | > 30 | > 30 | > 30 | 33.3 | 66.7 |  |  |  |  | 
CN1C2CCC1C1C(=C(c3ccc(F)cc3)c3ccccc31)C2 (stereo not drawn) [K] | 3/3 | 34 | 27.6 | 100 | 15.5 | 116 | 71.6 |  | > 30 | 14.9 | > 30 |  |  | 0/3 | 1/3 | animals were ataxic and depressed at this dose |  | 
CN1C2CCC1C1C(=C(c3cccc(C(F)(F)F)c3)c3ccccc31)C2 (stereo not drawn) [L, 1 (SR):3(RS)-1,3-Ethano-2-methyl-5-(m-trifluoromethylphenyl)-1,3,4,9b-tetrahydro-H-indeno[1,2-c] pyridine. HCl 0.75H2 O.] |  |  | 23.7 | 100 | 20 | 29.7 | 80.4 |  |  |  |  |  | 100 |  |  |  | 14 | 
CN1C2CCC1C1C(=C(c3cccc(F)c3)c3ccc(F)cc31)C2 (stereo not drawn) [P] |  | 12 | -2.4 | 99.8 | 11.7 | 64.3 | 297 |  |  |  |  |  |  |  |  |  |  | 0/3
COc1ccc(C2=C3CC4CCC(C3c3ccccc32)N4C)cc1 (stereo not drawn) [R] | 1/3 | 26 | -27.3 | 97.1 | 15 | 138 | 112 | > 30 | 17.3 | > 30 | > 30 |  |  |  |  |  |  | 
COc1ccc2c(c1)C1C3CCC(CC1C2(O)c1ccccc1)N3C (stereo not drawn) [UU] |  |  | 10.3 | 15.9 |  |  |  | 17.3 | > 30 | > 30 | > 30 |  |  |  |  |  | 2 | 
COc1ccc2c(c1)C(c1ccccc1)=C1CC3CCC(C12)N3C (stereo not drawn) [V] | 0/3 |  |  |  |  |  |  |  | > 30 |  |  |  |  |  |  |  |  | 
COc1ccc2c(c1)C1=C(CC3CCC1N3C)C2c1ccccc1 (stereo not drawn) [Z] | 0/3 |  | -27.6 | 67 | 28.1 | > 250 | > 250 | 17.3 | > 30 | > 30 | > 30 |  |  |  |  |  |  | 
